This note sets out measurements from ChEMBL document CHEMBL4699524 (Bioorg Med Chem Lett, 2020).

A short description of series [1]: Selectivity index, ratio of IC50 for antileishmanial activity against Leishmania major IR-173 promastigotes to IC50 for antileishmanial activity against Leishmania donovani 9515 promastigotes incubated for 72 hrs by resazurin dye based assay. The format is functional. In general terms: The colour change of resazurin is a common sign of viable cells or microbes.

Series [2] deals with Plasmodium falciparum. Kind of series: Antiplasmodial activity against chloroquine-resistant Plasmodium falciparum Dd2 by LDH assay. The format is functional, organism-based.
For series [3], the system named is Plasmodium falciparum. The series can be described thus: Antiplasmodial activity against chloroquine-sensitive Plasmodium falciparum NF54 by LDH assay. In kind it is functional, organism-based.
Series [4] is described as follows: Selectivity index, ratio of IC50 for CHO cells to IC50 for antileishmanial activity against Leishmania donovani 1S by resazurin dye based assay. The settings on record: hamster, read-out: Ratio IC50. In kind it is toxicity.
The subject of series [5] is Leishmania donovani. Kind of series: Antileishmanial activity against Leishmania donovani 9515 promastigotes assessed as inhibition of parasite growth incubated for 72 hrs by resazurin dye based assay. The conditions noted are these: Leishmania donovani, 9515, 72 h. The format is functional, organism-based.
The test system of another series is Leishmania major. The series can be described thus: Antileishmanial activity against Leishmania major IR-173 promastigotes assessed as inhibition of parasite growth incubated for 72 hrs by resazurin dye based assay. The format is functional, organism-based. The conditions noted are these: IR-173, 72 h.
Series [6] deals with Leishmania donovani. The series can be described thus: Antileishmanial activity against Leishmania donovani 1S promastigotes assessed as inhibition of parasite growth incubated for 72 hrs by resazurin dye based assay. The format is functional, organism-based.
Series [7] is described as follows: Selectivity index, ratio of IC50 for antileishmanial activity against Leishmania major IR-173 promastigotes to IC50 for antileishmanial activity against Leishmania donovani 1S promastigotes incubated for 72 hrs by resazurin dye based assay. The format is functional.
The next series concerns CHO. The series can be described thus: Cytotoxicity against CHO cells assessed as reduction in cell viability by MTT assay. In kind it is cell-based. The settings on record: Cricetulus griseus. (In general: Tetrazolium assays rely on reduction of a dye to a coloured formazan, in cell work by metabolically active cells.)
Series [8] can be described thus: Selectivity index, ratio of IC50 for CHO cells to IC50 for antileishmanial activity against Leishmania donovani 9515 by resazurin dye based assay. The format is toxicity. The conditions noted are these: hamster, read-out: Ratio IC50.
Another series in a line: in vitro. The settings on record: hamster, CHO cells.
In series [9] the test system is Leishmania donovani. Kind of series: Potency index, ratio of dihydroartemisinin IC50 to test compound IC50 for antileishmanial activity against Leishmania donovani 1S promastigotes incubated for 72 hrs by resazurin dye based assay. The format is functional.
Series [10] relates to Leishmania donovani. Kind of series: Potency index, ratio of artesunate IC50 to test compound IC50 for antileishmanial activity against Leishmania donovani 9515 promastigotes incubated for 72 hrs by resazurin dye based assay. The format is functional.
Series [11] deals with Leishmania donovani. Kind of series: Potency index, ratio of artesunate IC50 to test compound IC50 for antileishmanial activity against Leishmania donovani 1S promastigotes incubated for 72 hrs by resazurin dye based assay. In kind it is functional.
Series [12] has as its system Leishmania donovani. The series can be described thus: Potency index, ratio of artemether IC50 to test compound IC50 for antileishmanial activity against Leishmania donovani 1S promastigotes incubated for 72 hrs by resazurin dye based assay. The format is functional.
Series [13] deals with Leishmania donovani. Kind of series: Potency index, ratio of artemether IC50 to test compound IC50 for antileishmanial activity against Leishmania donovani 9515 promastigotes incubated for 72 hrs by resazurin dye based assay. The format is functional.
Series [14] deals with Leishmania donovani. Kind of series: Potency index, ratio of dihydroartemisinin IC50 to test compound IC50 for antileishmanial activity against Leishmania donovani 9515 promastigotes incubated for 72 hrs by resazurin dye based assay. In kind it is functional.

Where only a bound is given, the exact number is not on record here.

Usually IC50 stands for the concentration that gives 50% inhibition. Turning to `C[C@@H]1CC[C@H]2C(C)(C=O)O[C@@H]3O[C@@]4(C)CC[C@@H]1[C@]32OO4` (some centres undefined), the Ratio IC50 in series [1] and in series [7] was 3 throughout. In addition, the IC50 in the series with Plasmodium falciparum [2] is 0.0041 µM; in the series with Plasmodium falciparum [3], 0.0069 µM; with Leishmania donovani [5] it was 2.55 µM; in the series with Leishmania major it was 26.6 µM; with Leishmania donovani [6] it was 8.07 µM; in the series on CHO, > 100 µM. For the same compound, the selectivity ratio in series [4] is > 39; in series [8] it was 13; in “in vitro” it was 4.

As for `Cc1csc(C(=O)OCC2(C)O[C@@H]3O[C@@]4(C)CC[C@H]5[C@H](C)CC[C@@H]2[C@@]35OO4)c1` (some centres undefined), the “Ratio IC50” value in the series on Leishmania donovani [9], in the series with Leishmania donovani [10], in the series on Leishmania donovani [11], with Leishmania donovani [12], in the series with Leishmania donovani [13] and with Leishmania donovani [14] was 30 in each case. The IC50 in the series with Plasmodium falciparum [2] is 0.0071 µM; in the series with Plasmodium falciparum [3] it was 0.0072 µM; in the series with Leishmania donovani [5], 6.48 µM; in the series on Leishmania major, 4.26 µM; with Leishmania donovani [6] it was 5.61 µM; in the series with CHO, > 100 µM. Besides, the figures for the selectivity ratio (in [4]; in [8]; in “in vitro”) were > 15, 18 and 24, respectively.

Consider `C[C@@H]1CC[C@H]2C(C)(COC(=O)c3cccs3)O[C@@H]3O[C@@]4(C)CC[C@@H]1[C@]32OO4` (some centres undefined), for which the “Ratio IC50” value with Leishmania donovani [9], in the series on Leishmania donovani [10], in the series on Leishmania donovani [11], in the series with Leishmania donovani [12], with Leishmania donovani [13] and in the series on Leishmania donovani [14] was 30 throughout. Further, the IC50 in the series with Plasmodium falciparum [2] was 0.0059 µM; in the series with Plasmodium falciparum [3] it was 0.0048 µM; with Leishmania donovani [5], > 100 µM; in the series with Leishmania major, 9.93 µM; in the series on Leishmania donovani [6] it was 11.5 µM; with CHO, > 100 µM. The results for the selectivity ratio (in series [8]; in the series “in vitro”) were 9 and 10, respectively.

With `C[C@@H]1CC[C@H]2C(C)(COC(=O)c3ccc(-c4ccccc4)cc3)O[C@@H]3O[C@@]4(C)CC[C@@H]1[C@]32OO4` (some centres undefined), the “Ratio IC50” value in the series with Leishmania donovani [9], with Leishmania donovani [10], in the series on Leishmania donovani [11], in the series with Leishmania donovani [12], in the series with Leishmania donovani [13] and in the series with Leishmania donovani [14] was 30 in each case. Besides, the IC50 was 0.0069 µM with Plasmodium falciparum [2]; 0.0073 µM with Plasmodium falciparum [3]; 2.8 µM in the series with Leishmania donovani [5]; 9.87 µM with Leishmania major; 4.42 µM in the series on Leishmania donovani [6]; > 100 µM in the series with CHO. In addition, the selectivity ratio was > 36 in [4], 23 in series [8] and 10 in the series “in vitro”.

Take `CCCC(=O)OCC1(C)O[C@@H]2O[C@@]3(C)CC[C@H]4[C@H](C)CC[C@@H]1[C@@]24OO3` (some centres undefined): the IC50 is 0.0069 µM in the series with Plasmodium falciparum [2]; 0.0169 µM with Plasmodium falciparum [3]; 45 µM in the series with Leishmania donovani [5]; 11.9 µM in the series on Leishmania major; 12.4 µM in the series with Leishmania donovani [6]; > 100 µM in the series with CHO. Besides, the figures for the selectivity ratio (in series [4]; in series [8]; in the series “in vitro”) were > 2, 8 and 8, respectively.
